# What was measured:
# [1] = molecular target: Sodium-dependent serotonin transporter (Homo sapiens, UniProt P31645); assay: Displacement of [3H]citalopram from SERT
# [2] = molecular target: Sodium-dependent noradrenaline transporter (Homo sapiens, UniProt P23975); assay: Displacement of [3H]nisoxetine from NET
# [3] = molecular target: T1, Sodium-dependent dopamine transporter (Homo sapiens, UniProt Q01959); assay: Displacement of [3H]WIN-35 from DAT at 1 uM
# [4] = molecular target: T1, Sodium-dependent dopamine transporter; assay: Displacement of [3H]WIN-35 from DAT
# Sequence of Sodium-dependent serotonin transporter (P31645 whole entry): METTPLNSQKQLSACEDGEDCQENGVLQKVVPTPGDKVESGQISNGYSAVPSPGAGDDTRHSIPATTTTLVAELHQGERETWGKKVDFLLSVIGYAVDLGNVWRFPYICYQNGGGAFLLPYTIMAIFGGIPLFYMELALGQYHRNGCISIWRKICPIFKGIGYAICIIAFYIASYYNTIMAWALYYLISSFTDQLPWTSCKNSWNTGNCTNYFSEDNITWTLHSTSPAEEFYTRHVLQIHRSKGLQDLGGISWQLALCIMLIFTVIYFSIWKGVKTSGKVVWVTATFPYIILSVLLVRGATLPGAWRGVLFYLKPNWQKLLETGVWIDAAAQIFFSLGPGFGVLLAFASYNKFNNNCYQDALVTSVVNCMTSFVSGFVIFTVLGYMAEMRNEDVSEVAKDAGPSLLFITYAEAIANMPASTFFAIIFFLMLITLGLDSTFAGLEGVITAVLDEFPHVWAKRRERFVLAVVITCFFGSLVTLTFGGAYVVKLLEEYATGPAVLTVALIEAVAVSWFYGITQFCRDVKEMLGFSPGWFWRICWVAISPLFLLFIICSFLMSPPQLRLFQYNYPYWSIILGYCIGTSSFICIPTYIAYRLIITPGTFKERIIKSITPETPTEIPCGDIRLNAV
# Sequence of Sodium-dependent noradrenaline transporter (P23975 whole entry): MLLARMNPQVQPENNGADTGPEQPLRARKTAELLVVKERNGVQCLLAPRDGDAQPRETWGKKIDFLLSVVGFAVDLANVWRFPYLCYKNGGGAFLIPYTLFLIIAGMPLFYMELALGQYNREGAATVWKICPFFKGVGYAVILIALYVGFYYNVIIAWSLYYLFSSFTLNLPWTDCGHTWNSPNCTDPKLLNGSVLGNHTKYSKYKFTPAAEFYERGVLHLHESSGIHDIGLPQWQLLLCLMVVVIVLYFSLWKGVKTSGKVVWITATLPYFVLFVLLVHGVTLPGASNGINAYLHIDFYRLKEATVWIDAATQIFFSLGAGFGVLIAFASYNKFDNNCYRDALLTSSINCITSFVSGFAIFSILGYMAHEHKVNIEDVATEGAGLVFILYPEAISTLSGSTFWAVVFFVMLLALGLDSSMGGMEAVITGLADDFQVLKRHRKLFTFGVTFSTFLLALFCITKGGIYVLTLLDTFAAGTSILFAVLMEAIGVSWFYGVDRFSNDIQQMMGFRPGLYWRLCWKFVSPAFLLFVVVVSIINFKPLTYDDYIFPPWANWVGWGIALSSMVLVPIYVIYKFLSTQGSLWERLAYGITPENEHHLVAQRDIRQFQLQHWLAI
# T1 sequence (Q01959 whole entry): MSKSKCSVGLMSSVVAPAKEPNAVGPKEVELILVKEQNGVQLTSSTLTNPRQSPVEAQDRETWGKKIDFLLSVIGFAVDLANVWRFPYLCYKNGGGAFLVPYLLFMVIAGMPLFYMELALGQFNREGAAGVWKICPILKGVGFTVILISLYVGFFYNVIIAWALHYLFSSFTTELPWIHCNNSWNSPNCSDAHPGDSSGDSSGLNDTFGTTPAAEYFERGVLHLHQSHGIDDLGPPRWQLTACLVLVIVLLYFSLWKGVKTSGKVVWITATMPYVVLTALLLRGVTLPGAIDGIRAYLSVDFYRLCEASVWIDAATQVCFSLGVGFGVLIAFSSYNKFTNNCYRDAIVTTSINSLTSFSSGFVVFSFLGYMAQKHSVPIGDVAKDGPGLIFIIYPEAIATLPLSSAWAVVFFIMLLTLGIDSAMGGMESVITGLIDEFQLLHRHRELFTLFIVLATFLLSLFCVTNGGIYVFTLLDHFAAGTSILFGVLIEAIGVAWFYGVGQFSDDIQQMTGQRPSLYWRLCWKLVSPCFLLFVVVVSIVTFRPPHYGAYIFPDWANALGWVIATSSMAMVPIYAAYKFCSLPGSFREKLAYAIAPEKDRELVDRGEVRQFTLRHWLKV
SMILES,Ki [1] [nM],Ki [2] [nM],inhibition [3] [%],Ki [4] [nM]
COc1ccc(CN(CC(C)C)C2CCNCC2)c(OC)c1,2.2,1060,1.8,–
COCCCN(Cc1ccccc1C(F)(F)F)C1CCNCC1,2.2,6.8,-8,–
COc1ccccc1CN(CC(C)C)C1CCNCC1,15,145,4,–
CSc1ccccc1CN(CC(C)C)C1CCNCC1,1.1,3.3,–,–
N#CCCCN(Cc1ccccc1C(F)(F)F)C1CCNCC1,0.58,21,–,–
CC(C)CN(Cc1ccccc1Cl)C1CCNCC1,1.6,1.4,–,83
Cc1ccc(CN(CC(C)C)C2CCNCC2)c(C)c1,0.39,4.8,–,–
FC(F)(F)c1ccccc1CN(C1CCCC1)C1CCNCC1,3.6,4.1,–,–
CC(C)CN(Cc1cc(Cl)ccc1Cl)C1CCNCC1,2.1,5.5,–,–
CC(C)(C)CN(Cc1ccccc1C(F)(F)F)C1CCNCC1,4.3,2.7,–,160
FC(F)(F)c1ccccc1CN(CC1CC1)C1CCNCC1,1.5,6,–,–
CC(C)CN(Cc1cccc(C#N)c1)C1CCNCC1,0.48,690,–,201
CC(C)N(Cc1ccccc1C(F)(F)F)C1CCNCC1,5.6,26,–,–
CCC(CC)CN(Cc1ccccc1C(F)(F)F)C1CCNCC1,6.9,6.1,–,–
CC(C)CN(Cc1cccc(F)c1)C1CCNCC1,–,43,–,86.5
Cc1ccc(CN(CC(C)C)C2CCNCC2)cc1,0.99,69,–,–
CC(C)CN(Cc1ccccc1C#N)C1CCNCC1,1.2,42,–,–

SMILES,Ki [1] [nM],Ki [2] [nM],inhibition [3] [%],Ki [4] [nM]
CCCCN(Cc1ccccc1C(F)(F)F)C1CCNCC1,1.5,5.1,–,–
Cc1ccccc1CN(CC(C)C)C1CCNCC1,1.5,3.3,–,240
CC(C)CN(Cc1ccccc1)C1CCNCC1,8.4,91,–,–
CCN(Cc1ccccc1C(F)(F)F)C1CCNCC1,8,61,-2,–
FC(F)(F)CN(Cc1ccccc1C(F)(F)F)C1CCNCC1,4.6,33,–,–
CC(C)CN(Cc1ccc(C#N)cc1)C1CCNCC1,0.28,190,–,–
CCCN(Cc1ccccc1C(F)(F)F)C1CCNCC1,2.2,6.5,–,–
CC(C)CN(Cc1ccc(F)cc1)C1CCNCC1,1.9,78,–,200
FC(F)(F)CCN(Cc1ccccc1C(F)(F)F)C1CCNCC1,2.8,9.8,–,–
CCC(CC)N(Cc1ccccc1C(F)(F)F)C1CCNCC1,6.8,86,–,–
CC(C)CN(Cc1ccc(Cl)cc1Cl)C1CCNCC1,0.96,2,–,230
CN(Cc1ccccc1C(F)(F)F)C1CCNCC1,–,–,3,–
FC(F)(F)OCCN(Cc1ccccc1C(F)(F)F)C1CCNCC1,17,51,-8,–
Cc1cccc(CN(CC(C)C)C2CCNCC2)c1,2.2,150,–,98
COCCN(Cc1ccccc1C(F)(F)F)C1CCNCC1,2.5,8.3,4,–
CC(C)CN(Cc1ccccc1F)C1CCNCC1,–,15,–,330

# The remaining lines, values ahead:
Ki [1] [nM],Ki [2] [nM],inhibition [3] [%],Ki [4] [nM],SMILES
0.07,300,–,–,CC(C)CN(Cc1ccc(C(F)(F)F)cc1)C1CCNCC1
0.48,420,–,–,CC(C)CN(Cc1cccc(C(F)(F)F)c1Cl)C1CCNCC1
3.1,95.9,-7,–,OCCN(Cc1ccc(F)cc1C(F)(F)F)C1CCNCC1
4.1,6,–,–,CC(C)CN(Cc1c(F)cccc1C(F)(F)F)C1CCNCC1
2.2,7.1,–,–,CC(C)CN(Cc1ccccc1OC(F)(F)F)C1CCNCC1
2.8,9.6,-3,–,CCOCCN(Cc1ccc(F)cc1C(F)(F)F)C1CCNCC1
3.1,20,–,580,CC(C)CN(Cc1ccc(F)cc1F)C1CCNCC1
4.2,15.9,–,–,CC(C)(C#N)CN(Cc1ccc(F)cc1C(F)(F)F)C1CCNCC1
9.6,175,–,–,CC(C)CN(Cc1cc(C(F)(F)F)ccc1Cl)C1CCNCC1
0.4,13.3,-4,–,N#CCCN(Cc1ccc(F)cc1C(F)(F)F)C1CCNCC1
0.3,1.8,–,190,CC(C)CN(Cc1ccc(F)cc1C(F)(F)F)C1CCNCC1
0.8,3.6,–,–,CCCN(Cc1ccc(F)cc1C(F)(F)F)C1CCNCC1
1.4,42.1,-2,–,COc1ccc(F)cc1CN(CC(C)C)C1CCNCC1
5,–,1.3,–,CC(C)(O)CCN(Cc1ccc(F)cc1C(F)(F)F)C1CCNCC1
2.5,3.1,–,–,Fc1ccc(CN(CC2CCC2)C2CCNCC2)c(C(F)(F)F)c1
0.7,6.2,–,–,CC(C)(C#N)CCN(Cc1ccc(F)cc1C(F)(F)F)C1CCNCC1
0.26,255,–,–,CC(C)CN(Cc1cccc(C(F)(F)F)c1)C1CCNCC1
4,4.2,-8,–,CC(C)(O)CN(Cc1ccc(F)cc1C(F)(F)F)C1CCNCC1
1.3,8.3,–,–,CCCCN(Cc1ccc(F)cc1C(F)(F)F)C1CCNCC1
1.1,5.4,-7,–,COCCCN(Cc1ccc(F)cc1C(F)(F)F)C1CCNCC1
0.4,6.5,–,–,Fc1ccc(CN(CC2CC2)C2CCNCC2)c(C(F)(F)F)c1 [listing 1 of 2 here]
7.9,3.4,–,–,CC(C)CN(Cc1cc(F)ccc1C(F)(F)F)C1CCNCC1
3,9.7,5,–,CC(C)OCCN(Cc1ccc(F)cc1C(F)(F)F)C1CCNCC1
0.8,6.1,–,–,Fc1ccc(CN(CC2CC2)C2CCNCC2)c(C(F)(F)F)c1 [listing 2 of 2 here]
1.4,3.2,–,210,CC(C)CN(Cc1ccccc1C(F)(F)F)C1CCNCC1
0.4,13.3,10,–,N#CCCCN(Cc1ccc(F)cc1C(F)(F)F)C1CCNCC1
5.8,2.2,–,120,CC(C)CN(Cc1ccc(C(F)(F)F)cc1F)C1CCNCC1

# Source: ChEMBL document CHEMBL1147706, “N-Alkyl-N-arylmethylpiperidin-4-amines: novel dual inhibitors of serotonin and norepinephrine reuptake” (Bioorg Med Chem Lett, 2006)
